Literature values in publication PMC5742115, “Pharmacophore Modeling and in Silico/in Vitro Screening for Human Cytochrome P450 11B1 and Cytochrome P450 11B2 Inhibitors” (Frontiers in Chemistry, 2017).
Like-named read-outs stand apart in the source and are kept apart here.

How the values were obtained:
CYP11B2 = conditions: reported activity, supplementary Table 1, read-out: CYP11B2 IC50, cited from earlier work
CYP11B1 = conditions: reported activity, supplementary Table 1, read-out: CYP11B1 IC50, cited from earlier work

O=C1CCc2cc(C(c3ccncc3)c3cccc(F)c3)cc3c2N1CC3 (centres unmarked) [CHEMBL2312958]
IC50 (CYP11B2; ref Yin et al., 2013): 88 nM
IC50 (CYP11B1; ref Yin et al., 2013): 532 nM

O=C1CCc2cc(C(c3ccncc3)c3ccc(F)cc3)cc3c2N1CC3 (centres unmarked) [CHEMBL2312959]
IC50 (CYP11B2; ref Yin et al., 2013): 56 nM
IC50 (CYP11B1; ref Yin et al., 2013): 88 nM

O=C1CCc2cc(C(c3ccncc3)c3cccc(Cl)c3)cc3c2N1CC3 (centres unmarked) [CHEMBL2312960]
IC50 (CYP11B2; ref Yin et al., 2013): 51 nM
IC50 (CYP11B1; ref Yin et al., 2013): 646 nM

O=C1CCc2cc(C(c3ccncc3)c3ccc(Cl)cc3)cc3c2N1CC3 (centres unmarked) [CHEMBL2312961]
IC50 (CYP11B2; ref Yin et al., 2013): 32 nM
IC50 (CYP11B1; ref Yin et al., 2013): 92 nM

Cc1cccc(C(c2ccncc2)c2cc3c4c(c2)CCN4C(=O)CC3)c1 (centres unmarked) [CHEMBL2312962]
IC50 (CYP11B2; ref Yin et al., 2013): 41 nM
IC50 (CYP11B1; ref Yin et al., 2013): 1340 nM

O=C1CCc2cc(Cc3cccnc3)cc3c2N1CC3 [CHEMBL2312965]
IC50 (CYP11B2; ref Yin et al., 2013): 74 nM
IC50 (CYP11B1; ref Yin et al., 2013): 16 nM

C=C(c1cccnc1)c1cc2c3c(c1)CCN3C(=O)CC2 [CHEMBL2312966]
IC50 (CYP11B2; ref Yin et al., 2013): 468 nM
IC50 (CYP11B1; ref Yin et al., 2013): 41 nM

CC(c1cccnc1)c1cc2c3c(c1)CCN3C(=O)CC2 (centres unmarked) [CHEMBL2312967]
IC50 (CYP11B2; ref Yin et al., 2013): 37 nM
IC50 (CYP11B1; ref Yin et al., 2013): 4 nM

O=C1CCc2cc(C(c3cccnc3)c3cccc(Cl)c3)cc3c2N1CC3 (centres unmarked) [CHEMBL2312971]
IC50 (CYP11B2; ref Yin et al., 2013): > 5000 nM
IC50 (CYP11B1; ref Yin et al., 2013): 36 nM

O=C1CCc2cc(C(c3ccc(F)cc3)c3cccnc3)cc3c2N1CC3 (centres unmarked) [CHEMBL2312972]
IC50 (CYP11B2; ref Yin et al., 2013): 587 nM
IC50 (CYP11B1; ref Yin et al., 2013): 78 nM

Cc1nnc2n1-c1c(Cl)cc(-c3cnccc3C3CC3)cc1CC2 [CHEMBL2331703]
IC50 (CYP11B2; ref Blass, 2013a): 48 nM
IC50 (CYP11B1; ref Blass, 2013a): 6930 nM

COC(C)(C)c1cncc(-c2ccc3c(c2)CCc2nnc(C)n2-3)c1 [CHEMBL2331704]
IC50 (CYP11B2; ref Blass, 2013a): 5 nM
IC50 (CYP11B1; ref Blass, 2013a): 108 nM

Cc1nnc2n1-c1ccc(-c3cncc4ccccc34)cc1CC2 [CHEMBL2331706]
IC50 (CYP11B2; ref Blass, 2013a): 5 nM
IC50 (CYP11B1; ref Blass, 2013a): 407 nM

Fc1ccc(Cn2ccnc2)cn1 [CHEMBL2331707]
IC50 (CYP11B2; ref Blass, 2013b): 1740 nM
IC50 (CYP11B1; ref Blass, 2013b): 72 nM

O=c1c2ccccc2oc2c(Cl)ccc(Cn3ccnc3)c12 [CHEMBL2333326]
IC50 (CYP11B2; ref Gobbi et al., 2013): 3 nM
IC50 (CYP11B1; ref Gobbi et al., 2013): 0.5 nM

O=c1c2ccccc2oc2c(I)ccc(Cn3ccnc3)c12 [CHEMBL2333327]
IC50 (CYP11B2; ref Gobbi et al., 2013): 23.5 nM
IC50 (CYP11B1; ref Gobbi et al., 2013): 19.2 nM

COc1ccc(Cn2ccnc2)c2c(=O)c3ccccc3oc12 [CHEMBL2333329]
IC50 (CYP11B2; ref Gobbi et al., 2013): 41.1 nM
IC50 (CYP11B1; ref Gobbi et al., 2013): 80.1 nM

CCOc1ccc(Cn2ccnc2)c2c(=O)c3ccccc3oc12 [CHEMBL2333330]
IC50 (CYP11B2; ref Gobbi et al., 2013): 14.8 nM
IC50 (CYP11B1; ref Gobbi et al., 2013): 25.4 nM

CC(C)Oc1ccc(Cn2ccnc2)c2c(=O)c3ccccc3oc12 [CHEMBL2333331]
IC50 (CYP11B2; ref Gobbi et al., 2013): 19.1 nM
IC50 (CYP11B1; ref Gobbi et al., 2013): 92.5 nM

CC(C)CCOc1ccc(Cn2ccnc2)c2c(=O)c3ccccc3oc12 [CHEMBL2333332]
IC50 (CYP11B2; ref Gobbi et al., 2013): 25.2 nM
IC50 (CYP11B1; ref Gobbi et al., 2013): 24.4 nM

CCC(C)Oc1ccc(Cn2ccnc2)c2c(=O)c3ccccc3oc12 (centres unmarked) [CHEMBL2333333]
IC50 (CYP11B2; ref Gobbi et al., 2013): 15.3 nM
IC50 (CYP11B1; ref Gobbi et al., 2013): 13.1 nM

O=c1c2ccccc2oc2c(OCC3CC3)ccc(Cn3ccnc3)c12 [CHEMBL2333334]
IC50 (CYP11B2; ref Gobbi et al., 2013): 24.1 nM
IC50 (CYP11B1; ref Gobbi et al., 2013): 5.5 nM

O=c1c2ccccc2oc2c(OC3CCCC3)ccc(Cn3ccnc3)c12 [CHEMBL2333335]
IC50 (CYP11B2; ref Gobbi et al., 2013): 99.7 nM
IC50 (CYP11B1; ref Gobbi et al., 2013): 268 nM

Cc1cncc(Cc2ccc(-c3ccccc3)nc2)c1 [CHEMBL2417553]
IC50 (CYP11B2; ref Emmerich et al., 2013): 33 nM
IC50 (CYP11B1; ref Emmerich et al., 2013): 2 nM

FC(F)(F)c1cncc(Cc2ccc(-c3ccccc3)nc2)c1 [CHEMBL2417613]
IC50 (CYP11B2; ref Emmerich et al., 2013): 115 nM
IC50 (CYP11B1; ref Emmerich et al., 2013): 38 nM

COc1cncc(Cc2ccc(-c3ccccc3)nc2)c1 [CHEMBL2417614]
IC50 (CYP11B2; ref Emmerich et al., 2013): 25 nM
IC50 (CYP11B1; ref Emmerich et al., 2013): 5 nM

Oc1cncc(Cc2ccc(-c3ccccc3)nc2)c1 [CHEMBL2417615]
IC50 (CYP11B2; ref Emmerich et al., 2013): 836 nM
IC50 (CYP11B1; ref Emmerich et al., 2013): 51 nM

c1ccc(-c2cncc(Cc3ccc(-c4ccccc4)nc3)c2)cc1 [CHEMBL2417616]
IC50 (CYP11B2; ref Emmerich et al., 2013): 0.5 nM
IC50 (CYP11B1; ref Emmerich et al., 2013): 1.3 nM

CC(c1ccc(-c2ccccc2)nc1)n1ccnc1 (centres unmarked) [CHEMBL2417619]
IC50 (CYP11B2; ref Emmerich et al., 2013): 200 nM
IC50 (CYP11B1; ref Emmerich et al., 2013): 33 nM

CCC(c1ccc(-c2ccccc2)nc1)n1ccnc1 (centres unmarked) [CHEMBL2417620]
IC50 (CYP11B2; ref Emmerich et al., 2013): 92 nM
IC50 (CYP11B1; ref Emmerich et al., 2013): 28 nM

c1ccc(-c2ccc(C(C3CC3)n3ccnc3)cn2)cc1 (centres unmarked) [CHEMBL2417621]
IC50 (CYP11B2; ref Emmerich et al., 2013): 25 nM
IC50 (CYP11B1; ref Emmerich et al., 2013): 21 nM

c1ccc(-c2ccc(C(c3ccco3)n3ccnc3)cn2)cc1 (centres unmarked) [CHEMBL2417623]
IC50 (CYP11B2; ref Emmerich et al., 2013): 74 nM
IC50 (CYP11B1; ref Emmerich et al., 2013): 69 nM

CC(c1ccc(-c2ccsc2)nc1)n1ccnc1 (centres unmarked) [CHEMBL2417625]
IC50 (CYP11B2; ref Emmerich et al., 2013): 151 nM
IC50 (CYP11B1; ref Emmerich et al., 2013): 21 nM

c1cn(C(c2ccc(-c3ccsc3)nc2)C2CC2)cn1 (centres unmarked) [CHEMBL2417626]
IC50 (CYP11B2; ref Emmerich et al., 2013): 31 nM
IC50 (CYP11B1; ref Emmerich et al., 2013): 11 nM
